# Experimental data from patent publication US7902373B2 (Pfizer Inc, priority 2006, dated 2011).
# Molecular target: human recombinant H-PGDS (Homo sapiens, UniProt O60760)
# Assay: Fluorescence intensity h-PGDS TBA enzyme assay
# Type: biochemical
# Settings: Examples up to 622 (and 3a, 3b)
# human recombinant H-PGDS, sequence (O60760 whole entry): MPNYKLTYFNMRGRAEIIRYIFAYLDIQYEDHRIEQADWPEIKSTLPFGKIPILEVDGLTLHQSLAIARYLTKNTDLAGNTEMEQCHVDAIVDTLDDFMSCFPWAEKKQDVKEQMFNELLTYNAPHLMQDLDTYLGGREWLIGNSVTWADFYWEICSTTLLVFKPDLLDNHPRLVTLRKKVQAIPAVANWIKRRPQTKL
row,IC50 [nM],SMILES
1,0.928,"O=C(NC1CCN(C2CCC(O)(c3nccs3)CC2)CC1)c1ccc(-c2cccc(F)c2)nc1 (centres unmarked) [Example 555, 6-(3-Fluorophenyl)-N-{1-[4-hydroxy-4-(1,3-thiazol-2-yl)cyclohexyl]piperidin-4-yl}nicotinamide]"
2,0.364,"O=C(NC1CCN(C2CCC(Oc3ccccc3)CC2)CC1)c1ccc(-c2cccc(F)c2)nc1 (centres unmarked) [Example 556, 6-(3-Fluorophenyl)-N-[1-(4-phenoxycyclohexyl)piperidin-4-yl]nicotinamide]"
3,6.56,"NC(=O)CCN1CCC(N2CCC(NC(=O)c3ccc(-c4cccc(F)c4)nc3)CC2)CCC1=O (centres unmarked) [Example 557, N-{1-[1-(3-Amino-3-oxopropyl)-7-oxoazepan-4-yl]piperidin-4-yl}-6-(3-fluorophenyl)nicotinamide]"
4,0.345,"O=C(NC1CCN(C2CCC(O)(c3ccccc3)CC2)CC1)c1ccc(-c2cccc(F)c2)nc1 (centres unmarked) [Example 558, 6-(3-Fluorophenyl)-N-[1-(4-hydroxy-4-phenylcyclohexyl)piperidin-4-yl]nicotinamide]"
5,10.6,"CC(C)(C)OC(=O)c1ccc(N2CCC(NC(=O)c3ccc(-c4cccc(F)c4)nc3)CC2)nc1 [Example 559, tert-Butyl 6-[4-({[6-(3-fluorophenyl)pyridin-3-yl]carbonyl}amino)piperidin-1-yl]nicotinate]"
6,0.641,"O=C(O)c1ccc(N2CCC(NC(=O)c3ccc(-c4cccc(F)c4)nc3)CC2)nc1 [Example 560, 6-[4-({[6-(3-Fluorophenyl)pyridin-3-yl]carbonyl}amino)piperidin-1-yl]nicotinic acid]"
7,1.14,"CCN(CCO)C(=O)c1ccc(N2CCC(NC(=O)c3ccc(-c4cccc(F)c4)nc3)CC2)nc1 [Example 561, N-Ethyl-6-[4-({[6-(3-fluorophenyl)pyridin-3-yl]carbonyl}amino)piperidin-1-yl]-N-(2-hydroxyethyl)nicotinamide]"
8,1.74,"C=C(C)CN(C)C(=O)c1ccc(N2CCC(NC(=O)c3ccc(-c4cccc(F)c4)nc3)CC2)nc1 [Example 562, 6-[4-({[6-(3-Fluorophenyl)pyridin-3-yl]carbonyl}amino)piperidin-1-yl]-N-methyl-N-(2-methylprop-2-en-1-yl)nicotinamide]"
9,0.981,"C=CCN(C)C(=O)c1ccc(N2CCC(NC(=O)c3ccc(-c4cccc(F)c4)nc3)CC2)nc1 [Example 563, N-Allyl-6-[4-({[6-(3-fluorophenyl)pyridin-3-yl]carbonyl}amino)piperidin-1-yl]-N-methylnicotinamide]"
10,1.09,"O=C(NC1CCN(c2ccc(C(=O)N3CCC3)cn2)CC1)c1ccc(-c2cccc(F)c2)nc1 [Example 564, N-{1-[5-(Azetidin-1-ylcarbonyl)pyridin-2-yl]piperidin-4-yl}-6-(3-fluorophenyl)nicotinamide]"
11,1.05,"C#CCN(C)C(=O)c1ccc(N2CCC(NC(=O)c3ccc(-c4cccc(F)c4)nc3)CC2)nc1 [Example 565, 6-[4-({[6-(3-Fluorophenyl)pyridin-3-yl]carbonyl}amino)piperidin-1-yl]-N-methyl-N-prop-2-yn-1-ylnicotinamide]"
12,1.82,"CCN(C)C(=O)c1ccc(N2CCC(NC(=O)c3ccc(-c4cccc(F)c4)nc3)CC2)nc1 [Example 566, N-Ethyl-6-[4-({[6-(3-fluorophenyl)pyridin-3-yl]carbonyl}amino)piperidin-1-yl]-N-methylnicotinamide]"
13,0.867,"CC(CO)N(C)C(=O)c1ccc(N2CCC(NC(=O)c3ccc(-c4cccc(F)c4)nc3)CC2)nc1 (centres unmarked) [Example 567, 6-[4-({[6-(3-Fluorophenyl)pyridin-3-yl]carbonyl}amino)piperidin-1-yl]-N-(2-hydroxy-1-methylethyl)-N-methylnicotinamide]"
14,0.649,"O=C(NC1CCN(c2ccc(C(=O)N3CCC(F)C3)cn2)CC1)c1ccc(-c2cccc(F)c2)nc1 (centres unmarked) [Example 568, 6-(3-Fluorophenyl)-N-(1-{5-[(3-fluoropyrrolidin-1-yl)carbonyl]pyridin-2-yl}piperidin-4-yl)nicotinamide]"
15,2.13,"CN(C(=O)c1ccc(N2CCC(NC(=O)c3ccc(-c4cccc(F)c4)nc3)CC2)nc1)C1CCC1 [Example 569, N-Cyclobutyl-6-[4-({[6-(3-fluorophenyl)pyridin-3-yl]carbonyl}amino)piperidin-1-yl]-N-methylnicotinamide]"
16,1.41,"CCN(CC)C(=O)c1ccc(N2CCC(NC(=O)c3ccc(-c4cccc(F)c4)nc3)CC2)nc1 [Example 570, N,N-Diethyl-6-[4-({[6-(3-fluorophenyl)pyridin-3-yl]carbonyl}amino)piperidin-1-yl]nicotinamide]"
17,1.04,"O=C(NC1CCN(c2ccc(C(=O)N3CC=CC3)cn2)CC1)c1ccc(-c2cccc(F)c2)nc1 [Example 571, N-{1-[5-(2,5-Dihydro-1H-pyrrol-1-ylcarbonyl)pyridin-2-yl]piperidin-4-yl)-6-(3-fluorophenyl)nicotinamide]"
18,5.25,"CCCN(C)C(=O)c1ccc(N2CCC(NC(=O)c3ccc(-c4cccc(F)c4)nc3)CC2)nc1 [Example 572, 6-[4-({[6-(3-Fluorophenyl)pyridin-3-yl]carbonyl}amino)piperidin-1-yl]-N-methyl-N-propylnicotinamide]"
19,1.35,"O=C(NC1CCN(c2ccc(C(=O)N3CCSC3)cn2)CC1)c1ccc(-c2cccc(F)c2)nc1 [Example 573, 6-(3-Fluorophenyl)-N-{1-[5-(1,3-thiazolidin-3-ylcarbonyl)pyridin-2-yl]piperidin-4-yl}nicotinamide]"

row,IC50 [nM],SMILES
1,1.24,"CN(CC1CC1)C(=O)c1ccc(N2CCC(NC(=O)c3ccc(-c4cccc(F)c4)nc3)CC2)nc1 [Example 574, N-(Cyclopropylmethyl)-6-[4-({[6-(3-fluorophenyl)pyridin-3-yl]carbonyl}amino)piperidin-1-yl]-N-methylnicotinamide]"
2,2.24,"CC(C)CN(C)C(=O)c1ccc(N2CCC(NC(=O)c3ccc(-c4cccc(F)c4)nc3)CC2)nc1 [Example 575, 6-[4-({[6-(3-Fluorophenyl)pyridin-3-yl]carbonyl}amino)piperidin-1-yl]-N-isobutyl-N-methylnicotinamide]"
3,0.561,"CN(CCC#N)C(=O)c1ccc(N2CCC(NC(=O)c3ccc(-c4cccc(F)c4)nc3)CC2)nc1 [Example 576, N-(2-Cyanoethyl)-6-[4-({[6-(3-fluorophenyl)pyridin-3-yl]carbonyl}amino)piperidin-1-yl]-N-methylnicotinamide]"
4,1.48,"O=C(NC1CCN(CC(F)(F)F)CC1)c1ccc(N2CCC(NC(=O)c3ccc(-c4cccc(F)c4)nc3)CC2)nc1 [Example 577, 6-(3-Fluorophenyl)-N-{1-[5-({[1-(2,2,2-trifluoroethyl)piperidin-4-yl]amino}carbonyl)pyridin-2-yl]piperidin-4-yl}nicotinamide]"
5,3.1,"CC1C=CC(C)N1C(=O)c1ccc(N2CCC(NC(=O)c3ccc(-c4cccc(F)c4)nc3)CC2)nc1 (centres unmarked) [Example 578, N-(1-{5-[(2,5-Dimethyl-2,5-dihydro-1H-pyrrol-1-yl)carbonyl]pyridin-2-yl}piperidin-4-yl)-6-(3-fluorophenyl)nicotinamide]"
6,1.05,"O=C(NC1CCN(c2ncc3c(n2)CCOC3)CC1)c1ccc(-c2cccc(F)c2)nc1 [Example 579, N-[1-(7,8-Dihydro-5H-pyrano[4,3-d]pyrimidin-2-yl)piperidin-4-yl]-6-(3-fluorophenyl)nicotinamide]"
7,0.35,"O=C(NC1CCN(c2cccnn2)CC1)c1ccc(-c2cccc(F)c2)nc1 [Example 580, 6-(3-Fluorophenyl)-N-(1-pyridazin-3-ylpiperidin-4-yl)nicotinamide]"
8,1.05,"O=C(NC1CCN(CC(F)(F)F)CC1)c1ccc(-c2cc(F)ccc2F)nc1 [Example 583, 6-(2,5-Difluorophenyl)-N-[1-(2,2,2-trifluoroethyl)piperidin-4-yl]nicotinamide]"
9,1.38,"CCOC(=O)N1CCC(NC(=O)c2ccc(-c3cc(F)ccc3F)nc2)CC1 [Example 584, Ethyl 4-({[6-(2,5-Difluorophenyl)pyridine-3-yl]carbonyl}amino)piperidine-1-carboxylate]"
10,0.734,"O=C(NC1CCN(CC(F)(F)F)CC1)c1ccc(-c2ccccc2F)nc1 [Example 585, 6-(2-Fluorophenyl)-N-[1-(2,2,2-trifluoroethyl)piperidin-4-yl]nicotinamide]"
11,0.787,"CCOC(=O)N1CCC(NC(=O)c2ccc(-c3ccccc3F)nc2)CC1 [Example 586, Ethyl 4-({[6-(2-fluorophenyl)pyridin-3-yl]carbonyl}amino)piperidine-1-carboxylate]"
12,1.19,"O=C(NC1CCN(Cc2ccccn2)CC1)c1ccc(-c2ccccc2F)nc1 [Example 587, 6-(2-Fluorophenyl)-N-[1-(pyridin-2-ylmethyl)piperidin-4-yl]nicotinamide]"
13,0.621,"O=C(NC1CCN(Cc2cccc(F)c2)CC1)c1ccc(-c2ccccc2F)nc1 [Example 588, N-[1-(3-Fluorobenzyl)piperidin-4-yl]-6-(2-fluorophenyl)nicotinamide]"
14,33.3,"CC(C)N1CCC(NC(=O)c2ccc(-c3cccc(F)c3)nc2)C1 (centres unmarked) [Example 589, 6-(3-Fluorophenyl)-N-(1-isopropylpyrrolidin-3-yl)nicotinamide]"
15,0.74,"O=C(NC1CCN(c2ncc3c(n2)CCOC3)C1)c1ccc(-c2cccc(F)c2)nc1 (centres unmarked) [Example 590, N-[1-(7,8-Dihydro-5H-pyrano[43-d]pyrimidin-2-yl)pyrrolidin-3-yl]-6-(3-fluorophenyl)nicotinamide]"
16,5.57,"CCCN1CCC(NC(=O)c2ccc(-c3cccc(F)c3)nc2)CC1 [Example 591, 6-(3-Fluorophenyl)-N-(1-propylpiperidin-4-yl)nicotinamide]"
17,2.44,"CNC(=O)N1CCC(NC(=O)c2ccc(-c3cccc(F)c3)nc2)CC1 [Example 592, 6-(3-Fluorophenyl)-N-{1-[(methylamino)carbonyl]piperidin-4-yl}nicotinamide]"
18,2,"O=C(NC1CCN(CC2CCOCC2)CC1)c1ccc(-c2cccc(F)c2)nc1 [Example 593, 6-(3-Fluorophenyl)-N-[1-(tetrahydro-2H-pyran-4-ylmethyl)piperidin-4-yl]nicotinamide]"
19,2.7,"CCOC(=O)N1CCC(NC(=O)c2ccc(-c3cccc(F)c3)nc2)C1 (centres unmarked) [Example 594, Ethyl 3-({[6-(3-fluorophenyl)pyridin-3-yl]carbonyl}amino)pyrrolidine-1-carboxylate]"
